Test results from the supplement of paper PMC10307832.

Legend:
Test in all cases: relative viability (nuclei count vs DMSO), 5 days (fraction); higher = more cells survive
[1] = compound: CC1(C)CCC(CN2CCN(c3ccc(C(=O)NS(=O)(=O)c4ccc(NCC5CCOCC5)c([N+](=O)[O-])c4)c(Oc4cnc5[nH]ccc5c4)c3)CC2)=C(c2ccc(Cl)cc2)C1 [Venetoclax] + CCNC(=O)c1noc(-c2cc(C(C)C)c(O)cc2O)c1-c1ccc(CN2CCOCC2)cc1 [Luminespib] (partner 0.01 µM)
In short: (§1)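 Nuclei were stained with Hoechst during a one-step fixation (final 0.05% Triton X-100, 1% formaldehyde, 1 ug/ml Hoechst) carried out 5 days after dosing, then counted on 4× images. The cells, lung cancer lines in 1536-well plates, had been dosed by pin tool the day after seeding with one drug alone or a fixed anchor-drug dose plus five library-drug doses (not always all listed) in √10 steps. Relative viability is the nuclei count in treated wells divided by that in vehicle wells, and each value is the median of duplicate plates.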

[2] = compound: CC1(C)CCC(CN2CCN(c3ccc(C(=O)NS(=O)(=O)c4ccc(NCC5CCOCC5)c([N+](=O)[O-])c4)c(Oc4cnc5[nH]ccc5c4)c3)CC2)=C(c2ccc(Cl)cc2)C1 [Venetoclax] + Cc1cc(Nc2cc(N3CCN(C)CC3)nc(Sc3ccc(NC(=O)C4CC4)cc3)n2)n[nH]1 [Tozasertib] (partner 0.1 µM)
In short: as §1

[3] = compound: CC1(C)CCC(CN2CCN(c3ccc(C(=O)NS(=O)(=O)c4ccc(NCC5CCOCC5)c([N+](=O)[O-])c4)c(Oc4cnc5[nH]ccc5c4)c3)CC2)=C(c2ccc(Cl)cc2)C1 [Venetoclax] + Cc1nc(Nc2ncc(C(=O)Nc3c(C)cccc3Cl)s2)cc(N2CCN(CCO)CC2)n1 [Dasatinib] (partner 0.075 µM)
In short: as §1

[4] = compound: CC1(C)CCC(CN2CCN(c3ccc(C(=O)NS(=O)(=O)c4ccc(NCC5CCOCC5)c([N+](=O)[O-])c4)c(Oc4cnc5[nH]ccc5c4)c3)CC2)=C(c2ccc(Cl)cc2)C1 [Venetoclax] + COc1cccc2cc(-c3nc([C@H]4CC[C@H](C(=O)O)CC4)n4ncnc(N)c34)[nH]c12 [OSI-027] (partner 0.5 µM)
In short: as §1

UMC-11
relative viability ([1]; first compound 0.01 µM): 1.06 | relative viability ([1]; first compound 0.03162 µM): 0.987 | relative viability ([1]; first compound 0.1 µM): 1.04 | relative viability ([1]; first compound 0.3162 µM): 1.02 | relative viability ([1]; first compound 1 µM): 0.882 | relative viability ([2]; first compound 0.01 µM): 0.205 | relative viability ([2]; first compound 0.03162 µM): 0.213 | relative viability ([2]; first compound 0.1 µM): 0.2 | relative viability ([2]; first compound 0.3162 µM): 0.191 | relative viability ([2]; first compound 1 µM): 0.187 | relative viability ([3]; first compound 0.01 µM): 0.45 | relative viability ([3]; first compound 0.03162 µM): 0.518 | relative viability ([3]; first compound 0.1 µM): 0.463 | relative viability ([3]; first compound 0.3162 µM): 0.505 | relative viability ([3]; first compound 1 µM): 0.491 | relative viability ([4]; first compound 0.01 µM): 0.439 | relative viability ([4]; first compound 0.03162 µM): 0.46 | relative viability ([4]; first compound 0.1 µM): 0.465 | relative viability ([4]; first compound 0.3162 µM): 0.461 | relative viability ([4]; first compound 1 µM): 0.428
